Measurements as given in US9133207B2, “Tetrandrine derivatives with substituted 5-carbon, preparation method and use thereof” (Hangzhou Bensheng Pharmaceutical Co., Ltd., priority 2011, dated 2015).
In brackets after ≈: the same amount, converted by molar mass.

Experiments:
[1] = system: human non-small cell lung cancer cell line A549 transplanted tumor; assay: Experiment 8-1: transplanted tumor of human lung cancer in nude mice; assay type: in vivo, BALB/c nude mice; conditions: 50 mg/kg intragastric, 3 times a day, 10 days
Method: (§1) Cell lines: human non-small cell lung cancer cell line A549, from China Center for Type Culture Collection (CCTCC);
(§2) BS-TE-403 and BS-TE-333 (the present invention), and tetrandrine TTD from Jiangxi Jinfurong Pharmaceutical Co., Ltd. All compounds are administered at the dosage of 50 mg/kg weight each time.
Under sterile conditions, the above tumor cells in the logarithmic growth phase are collected and injected by subcutaneous injection in an amount of 5×10^6/0.2 ml/nude mice (cell viability>95%) into the right subaxillary of the nude mice, thus establishing a transplated tumor model of human non-small cell lung cancer in nude mice.
(§3) The experiments are divided into 4 groups: negative control group (solvent group), positive control group (lead compound TTD group), BS-TE-403 group and BS-TE-333 group.
(§4) The administrations are successive for 10 days.

[2] = system: Kasumi-1 (acute myeloid leukemia M2 type, AML-M2); assay: Leukemia cell growth inhibition, MTT, 72 h (Example 5); assay type: cell-based, human; conditions: Homo sapiens, Kasumi 1
Method in brief: (§5)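 Seed 6000 leukemia cells per well in 1640 medium containing 10% FBS. Add test compounds at different concentrations, mix, incubate 72 hours at 37° C in 5% CO2. Determine viable cells by MTT.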

[3] = system: K562/adr (drug-resistant, chronic myeloid leukemia, CML); assay: as above; assay type: cell-based, human; conditions: Homo sapiens, K562/Adr; 72 h, MTT
Method in brief: as §5

[4] = system: H9 (acute lymphoblastic leukemia, ALL); assay: as above; assay type: cell-based, human; conditions: Homo sapiens; 72 h, MTT
Method in brief: as §5

[5] = system: Jurkat (acute lymphoblastic leukemia, ALL); assay: as above; assay type: cell-based, human; conditions: for IC50 / IC90: Homo sapiens, Jurkat, 72 h, MTT
Method in brief: as §5

[6] = system: NB4 (acute promyelocytic leukemia, AML); assay: as above; assay type: cell-based, human; conditions: Homo sapiens; 72 h, MTT
Method in brief: as §5

MG63 (osteosarcoma) = assay: Solid tumor cell growth inhibition, MTT, 72 h (Example 7); assay type: cell-based, human; conditions: Homo sapiens; 72 h, MTT, MG-63
Method in brief: (§6)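 Each line is plated at 4000 cells per well in high-glucose DMEM supplemented with 10% FBS. After 24 h settling, derivatives at several concentrations are mixed in and cultured 72 h; MTT then gives viable cells, with untreated wells set to 100%.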

[7] = system: Hep-2 (laryngeal carcinoma); assay: as above; assay type: cell-based, human; conditions: Homo sapiens; 72 h, MTT, Hep 2
Method in brief: as §6

[8] = system: CaES-17 (esophageal cancer cell); assay: as above; assay type: cell-based, human; conditions: Homo sapiens, CaEs17; 72 h, MTT, CAES-17
Method in brief: as §6

PC-3 (prostate cancer) = assay: as above; assay type: cell-based, human; conditions: Homo sapiens; 72 h, MTT, PC-3
Method in brief: as §6

[9] = system: PANC-1 (pancreatic cancer); assay: as above; assay type: cell-based, human; conditions: for IC50 / IC90: Homo sapiens, 72 h, MTT, PANC-1
Method in brief: as §6

[10] = system: CNE (nasopharyngeal carcinoma cell); assay: as above; assay type: cell-based; conditions: Homo sapiens
Method in brief: as §6

[11] = system: RKO (human colon adenocarcinoma cell); assay: as above; assay type: cell-based; conditions: Homo sapiens; 72 h, MTT, RKO
Method in brief: as §6

[12] = system: Becap37 (human breast cancer cell); assay: as above; assay type: cell-based; conditions: for IC50 / IC90: Homo sapiens, 72 h, MTT, Becap-37
Method in brief: as §6

[13] = system: Huh7 (human liver cancer cell); assay: as above; assay type: cell-based; conditions: for IC50 / IC90: Homo sapiens, 72 h, MTT, Huh-7
Method in brief: as §6

[14] = system: MGC 803 (human gastric cancer cell); assay: as above; assay type: cell-based; conditions: Homo sapiens
Method in brief: as §6

[15] = system: SK-OV-3 (ovarian cancer cell); assay: as above; assay type: cell-based; conditions: Homo sapiens
Method in brief: as §6

A549 (human lung cancer) = assay: as above; assay type: cell-based; conditions: Homo sapiens; 72 h, MTT, A549
Method in brief: as §6

[16] = system: Hela (human cervical cancer cell); assay: as above; assay type: cell-based; conditions: Homo sapiens; 72 h, MTT, Hela
Method in brief: as §6

[17] = system: U87 MG (malignant glioma cell); assay: as above; assay type: cell-based; conditions: Homo sapiens, U-87 MG
Method in brief: as §6

[18] = system: human breast cancer multidrug resistant lines MCF-7/ADR; conditions: 2.5 μmol/L tetrandrine; cited from earlier work
[19] = system: RPMI8226 (multiple myeloma); assay: Multiple myeloma cell growth inhibition, MTT, 72 h (Example 6); assay type: cell-based, human; conditions: Homo sapiens, RPMI-8226; 72 h, MTT, RPMI8226
Method in brief: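 Viability was read by MTT after 72 h of compound exposure at 37 °C, 5% CO2. Each well held 6000 RPMI8226 cells in 1640 medium containing 10% fetal bovine serum, with derivatives added at various concentrations.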

[20] = Experiment 8-1: body weight of nude mice, preliminary toxicity; assay type: in vivo, BALB/c nude mice; conditions: M±SD
Method: as §2, §3, §4

[21] = mouse, in vivo, 50 mg/kg
Method: (§7) Animal: BALB/c nude mice, 8 weeks, female, purchased from Shanghai Laboratory Animal Center of Chinese Academy of Sciences, China.
(§8) The mice are administered from the third day after the inoculation. Each mouse is intragastrically administered in 0.4 ml each time and 3 times a day, at 8:00, 14:00 and 20:00, with 6-hour intervals. The administrations are successive for 10 days. The day before administration is deemed as Day 0 and the body weight and tumor size are determined every 5 days to produce a dynamic plot on body weight and tumor growth. On Day 29, the mice are dissected and the tumors are taken out and weighted. The tumor inhibition rate (%) is calculated after the effect of the medicament based on the tumor inhibition rate of the control group being zero.
(§9) The values determined are presented as mean±standard error (M±SD).

[22] = system: human non-small cell lung cancer cell line A549 transplanted tumor; assay: Experiment 8-2: transplanted tumor of human lung cancer in nude mice; assay type: in vivo, BALB/c nude mice
Excerpt: as §1, §4

[23] = Experiment 8-2: body weight of nude mice, preliminary toxicity
Method: as §7, §8, §9

COc1ccc2cc1Oc1ccc(cc1)C[C@H]1c3cc(c(OC)cc3CCN1C)Oc1c(OC)c(OC)cc3c1[C@H](C2)N(C)CC3 [TTD, 6,6′,7,12-tetramethoxy-2,2′dimethylberbamine, reference compound]
Mass of tumor ([1]; Day 27, M±SD): 799.00 ± 349.09 mg
Tumor Inhibition rate (%) ([1]; Day 27, control = zero): 13.95%
IC50 [2]: 1.69 mg/L (≈ 2.71 µM)
IC90 [2]: 8.24 mg/L (≈ 13.2 µM)
IC50 [3]: 0.44 mg/L (≈ 0.707 µM)
IC90 [3]: 2.14 mg/L (≈ 3.44 µM)
IC50 [4]: 2.69 mg/L (≈ 4.32 µM)
IC90 [4]: 6.4 mg/L (≈ 10.3 µM)
IC50 [5]: 2.09 mg/L (≈ 3.36 µM)
IC90 [5]: 9.85 mg/L (≈ 15.8 µM)
IC50 [6]: 1.6 mg/L (≈ 2.57 µM)
IC90 [6]: 4.1 mg/L (≈ 6.58 µM)
IC50 (MG63 (osteosarcoma)): 1.9 mg/L (≈ 3.05 µM)
IC90 (MG63 (osteosarcoma)): 3.7 mg/L (≈ 5.94 µM)
IC50 [7]: 3.88 mg/L (≈ 6.23 µM)
IC90 [7]: 11.9 mg/L (≈ 19 µM)
IC50 [8]: 8.34 mg/L (≈ 13.4 µM)
IC90 [8]: > 16 mg/L
IC50 (PC-3 (prostate cancer)): 6.01 mg/L (≈ 9.65 µM)
IC90 (PC-3 (prostate cancer)): 10.8 mg/L (≈ 17.3 µM)
IC50 [9]: 3.16 mg/L (≈ 5.07 µM)
IC90 [9]: 7.02 mg/L (≈ 11.3 µM)
IC50 [10]: 3.3 mg/L (≈ 5.3 µM)
IC90 [10]: 6.2 mg/L (≈ 9.96 µM)
IC50 [11]: 2.72 mg/L (≈ 4.37 µM)
IC90 [11]: 6.3 mg/L (≈ 10.1 µM)
IC50 [12]: 6.9 mg/L (≈ 11.1 µM)
IC90 [12]: 15 mg/L (≈ 24.1 µM)
IC50 [13]: 5.05 mg/L (≈ 8.11 µM)
IC90 [13]: 7.81 mg/L (≈ 12.5 µM)
IC50 [14]: 1.97 mg/L (≈ 3.16 µM)
IC90 [14]: 7.41 mg/L (≈ 11.9 µM)
IC50 [15]: 9.04 mg/L (≈ 14.5 µM)
IC90 [15]: > 16 mg/L
IC50 (A549 (human lung cancer)): 2.9 mg/L (≈ 4.66 µM)
IC90 (A549 (human lung cancer)): 12.5 mg/L (≈ 20.1 µM)
IC50 [16]: 4.05 mg/L (≈ 6.5 µM)
IC90 [16]: 9.24 mg/L (≈ 14.8 µM)
IC50 [17]: 0.66 mg/L (≈ 1.06 µM)
IC90 [17]: 3.58 mg/L (≈ 5.75 µM)
increase of adriamycin cytotoxicity on drug-resistant tumors [18]: 20.4 times
IC50 [19]: 0.37 mg/L (≈ 0.594 µM)
IC90 [19]: 2.54 mg/L (≈ 4.08 µM)
Weight (g) Final ([20]; 50 mg/kg intragastric, 3 times a day, 10 days, final body weight): 19.10 ± 2.02 g
Weight (g) Initial ([20]; nude mice body weight before administration): 22.40 ± 0.26 g

COc1ccc2cc1Oc1ccc(cc1)C[C@H]1c3cc(c(OC)cc3CCN1C)Oc1c(OC)c(OC)c(CN3CCC(N(C)C)CC3)c3c1[C@H](C2)N(C)CC3 [BS-TE-354]
toxic and side effect under such a dosage [21]: has caused some toxic and side effect
IC50 [2]: 0.37 mg/L (≈ 0.485 µM)
IC90 [2]: 1.97 mg/L (≈ 2.58 µM)
IC50 [3]: 0.99 mg/L (≈ 1.3 µM)
IC90 [3]: 2.65 mg/L (≈ 3.47 µM)
IC50 [4]: 0.78 mg/L (≈ 1.02 µM)
IC90 [4]: 1.25 mg/L (≈ 1.64 µM)
IC50 [5]: 0.5 mg/L (≈ 0.655 µM)
IC90 [5]: 2.23 mg/L (≈ 2.92 µM)
anti-Jurkat activity increase over tetrandrine ([5]; compared with tetrandrine): ~4 fold
IC50 [6]: 0.4 mg/L (≈ 0.524 µM)
IC90 [6]: 1 mg/L (≈ 1.31 µM)
effect on transplanted tumor of human lung cancer in nude mice ([22]; 50 mg/kg): exhibits inhibiting effect
Mass of tumor ([22]; 50 mg/kg intragastric, 3 times a day, 10 days, Day 29, M±SD): 423.25 ± 364.28 mg
Tumor Inhibition rate (%) ([22]; 50 mg/kg intragastric, 3 times a day, 10 days, Day 29, control = zero): 43.60%
IC50 (MG63 (osteosarcoma)): 0.68 mg/L (≈ 0.891 µM)
IC90 (MG63 (osteosarcoma)): 0.9 mg/L (≈ 1.18 µM)
IC50 [7]: 2.05 mg/L (≈ 2.69 µM)
IC90 [7]: 6.19 mg/L (≈ 8.11 µM)
IC50 [8]: 0.91 mg/L (≈ 1.19 µM)
IC90 [8]: 4.89 mg/L (≈ 6.41 µM)
IC50 (PC-3 (prostate cancer)): 1.9 mg/L (≈ 2.49 µM)
IC90 (PC-3 (prostate cancer)): 2.5 mg/L (≈ 3.28 µM)
IC50 [9]: 1.25 mg/L (≈ 1.64 µM)
IC90 [9]: 6.31 mg/L (≈ 8.27 µM)
anti-PANC-1 activity increase over tetrandrine ([9]; compared with tetrandrine): 2 fold
IC50 [10]: 0.54 mg/L (≈ 0.708 µM)
IC90 [10]: 1.62 mg/L (≈ 2.12 µM)
IC50 [11]: 0.25 mg/L (≈ 0.328 µM)
IC90 [11]: 0.51 mg/L (≈ 0.668 µM)
IC50 [12]: 0.4 mg/L (≈ 0.524 µM)
IC90 [12]: 2.4 mg/L (≈ 3.15 µM)
anti-Becap37 activity increase over tetrandrine ([12]; compared with tetrandrine): 17 fold
IC50 [13]: 0.65 mg/L (≈ 0.852 µM)
IC90 [13]: 0.98 mg/L (≈ 1.28 µM)
anti-Huh7 activity increase over tetrandrine ([13]; compared with tetrandrine): ~8 fold
IC50 [14]: 0.83 mg/L (≈ 1.09 µM)
IC90 [14]: 3.93 mg/L (≈ 5.15 µM)
IC50 [15]: 1.4 mg/L (≈ 1.83 µM)
IC90 [15]: > 16 mg/L
IC50 (A549 (human lung cancer)): 1.8 mg/L (≈ 2.36 µM)
IC90 (A549 (human lung cancer)): 9.8 mg/L (≈ 12.8 µM)
IC50 [16]: 1.07 mg/L (≈ 1.4 µM)
IC90 [16]: 2.81 mg/L (≈ 3.68 µM)
IC50 [17]: 0.31 mg/L (≈ 0.406 µM)
IC90 [17]: 1.44 mg/L (≈ 1.89 µM)
weight loss as compared with the weight in the control group (FIG. 6) ([23]; 50 mg/kg): relatively remarkable
Weight (g) Final ([23]; 50 mg/kg intragastric, 3 times a day, 10 days, final body weight, M±SD): 16.08 ± 1.00 g
Weight (g) Initial ([23]; nude mice body weight before administration, M±SD): 22.25 ± 0.29 g
IC50 [19]: 0.08 mg/L (≈ 0.105 µM)
IC90 [19]: 1.58 mg/L (≈ 2.07 µM)
